Reference: ChEMBL document CHEMBL1201862, “PubChem BioAssay data set” (2004)
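How tested: cells in 96-well plates exposed to compound for 48 hours at five concentrations. The concentration for 50% growth inhibition is given as GI50.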 The source made the active and inactive calls. No stated cut-off is given here; in the data, active = GI50 up to about 1.1 µM and inactive = higher.

Columns and labels:
Assay in all cases: growth of human tumour cells (NCI), 48 h
LOX IMVI = system: LOX IMVI
SN12C = system: SN12C
U-251 = system: U-251
NCI-H23 = system: NCI-H23
SR = system: SR
SK-MEL-28 = system: SK-MEL-28
KM12 = system: KM12
SF-539 = system: SF-539
OVCAR-4 = system: OVCAR-4
SF-268 = system: SF-268
SF-295 = system: SF-295
CAKI-1 = system: CAKI-1
SK-MEL-5 = system: SK-MEL-5
OVCAR-5 = system: OVCAR-5
EKVX = system: EKVX
HOP-62 = system: HOP-62
NCI-H226 = system: NCI-H226
UACC-62 = system: UACC-62

Structure (SMILES) | GI50 (LOX IMVI) | GI50 (SN12C) | GI50 (U-251) | GI50 (NCI-H23) | GI50 (SR) | GI50 (SK-MEL-28) | GI50 (KM12) | GI50 (SF-539) | GI50 (OVCAR-4) | GI50 (SF-268) | GI50 (SF-295) | GI50 (CAKI-1) | GI50 (SK-MEL-5) | GI50 (OVCAR-5) | GI50 (EKVX) | GI50 (HOP-62) | GI50 (NCI-H226) | GI50 (UACC-62)
COc1ccc(/C(Cl)=C(\C=N/O)c2ccc(OC)c(OC)c2)cc1OC | > 100 µM (inactive) | > 100 µM (inactive) | > 100 µM (inactive) | > 100 µM (inactive) | > 100 µM (inactive) | > 100 µM (inactive) | > 100 µM (inactive) | > 100 µM (inactive) | > 100 µM (inactive) | > 100 µM (inactive) | 81.7 µM (inactive) | > 100 µM (inactive) | > 100 µM (inactive) | > 100 µM (inactive) | > 100 µM (inactive) | 49.8 µM (inactive) | > 100 µM (inactive) | > 100 µM (inactive)
C[N+](C)(C)Cc1c(CC#N)[nH]c2ccccc12 | > 100 µM (inactive) | > 100 µM (inactive) | > 100 µM (inactive) | > 100 µM (inactive) | 44.6 µM (inactive) | > 100 µM (inactive) | > 100 µM (inactive) | > 100 µM (inactive) | 1.2 µM (inactive) | > 100 µM (inactive) | > 100 µM (inactive) | 96.8 µM (inactive) | > 100 µM (inactive) | > 100 µM (inactive) | > 100 µM (inactive) | > 100 µM (inactive) | > 100 µM (inactive) | > 100 µM (inactive)
C/C(CC(=O)N(C(C)C)C(C)C)=N\NC(=O)c1ccncc1 | > 100 µM (inactive) | > 100 µM (inactive) | > 100 µM (inactive) | > 100 µM (inactive) | > 100 µM (inactive) | > 100 µM (inactive) | – | > 100 µM (inactive) | > 100 µM (inactive) | > 100 µM (inactive) | > 100 µM (inactive) | – | > 100 µM (inactive) | – | > 100 µM (inactive) | – | > 100 µM (inactive) | > 100 µM (inactive)
Cc1ccccc1C(=O)N1CCN(C(=O)c2ccccc2C)CC1 | > 100 µM (inactive) | > 100 µM (inactive) | > 100 µM (inactive) | > 100 µM (inactive) | > 100 µM (inactive) | > 100 µM (inactive) | > 100 µM (inactive) | > 100 µM (inactive) | > 100 µM (inactive) | > 100 µM (inactive) | > 100 µM (inactive) | > 100 µM (inactive) | > 100 µM (inactive) | > 100 µM (inactive) | > 100 µM (inactive) | > 100 µM (inactive) | – | > 100 µM (inactive)
Cn1c(C2CC(C)(C)c3c2c2ccccc2n3C)cc2ccccc21 (configuration not stated) | > 304 µM (inactive) | > 304 µM (inactive) | > 304 µM (inactive) | > 304 µM (inactive) | > 304 µM (inactive) | > 304 µM (inactive) | > 304 µM (inactive) | 79.4 µM (inactive) | – | > 304 µM (inactive) | 195 µM (inactive) | 192 µM (inactive) | > 304 µM (inactive) | > 304 µM (inactive) | > 304 µM (inactive) | > 304 µM (inactive) | 180 µM (inactive) | > 304 µM (inactive)
COc1c(C)cc2c(c1O)C1NC(C2)[C@H](O)N2C3COC(=O)[C@@]4(CS[C@@H](c5c(OC(C)=O)c(C)c6c(c53)OCO6)C12)NCCC1=C4NC2C=CC=CC12 (some centres not stated) | < 0.01 µM (active) | < 0.01 µM (active) | < 0.01 µM (active) | < 0.01 µM (active) | < 0.01 µM (active) | < 0.01 µM (active) | – | < 0.01 µM (active) | – | < 0.01 µM (active) | < 0.01 µM (active) | – | < 0.01 µM (active) | – | < 0.01 µM (active) | < 0.01 µM (active) | < 0.01 µM (active) | < 0.01 µM (active)
O=Cc1cn(S(=O)(=O)c2ccccc2)c2ccccc12 | 20.6 µM (inactive) | 42.4 µM (inactive) | 27.6 µM (inactive) | 26.4 µM (inactive) | 20.1 µM (inactive) | 32.4 µM (inactive) | 86.5 µM (inactive) | 27.5 µM (inactive) | 33.6 µM (inactive) | 25.5 µM (inactive) | 48.3 µM (inactive) | – | – | > 100 µM (inactive) | > 100 µM (inactive) | > 100 µM (inactive) | 70.3 µM (inactive) | 26.9 µM (inactive)
COc1ccc(C2=NC(C)(C)CO2)cc1 | 82.6 µM (inactive) | > 100 µM (inactive) | > 100 µM (inactive) | > 100 µM (inactive) | > 100 µM (inactive) | > 100 µM (inactive) | > 100 µM (inactive) | > 100 µM (inactive) | > 100 µM (inactive) | > 100 µM (inactive) | > 100 µM (inactive) | > 100 µM (inactive) | > 100 µM (inactive) | > 100 µM (inactive) | > 100 µM (inactive) | > 100 µM (inactive) | – | > 100 µM (inactive)
O=C(c1ccccc1)c1nc2c(Cl)ccc(Cl)c2cc1C(Br)Br | 1.65 µM (inactive) | 1.17 µM (inactive) | 1.11 µM (active) | – | 1.59 µM (inactive) | 0.215 µM (active) | 1.14 µM (inactive) | 0.484 µM (active) | 1.82 µM (inactive) | 1.41 µM (inactive) | 1.2 µM (inactive) | 1.58 µM (inactive) | 1.34 µM (inactive) | 1.08 µM (active) | – | 1.67 µM (inactive) | 1.97 µM (inactive) | 1.25 µM (inactive)
COC1OC(CO)C(O)C(O)C1Br (configuration not stated) | > 100 µM (inactive) | > 100 µM (inactive) | > 100 µM (inactive) | > 100 µM (inactive) | > 100 µM (inactive) | > 100 µM (inactive) | > 100 µM (inactive) | > 100 µM (inactive) | > 100 µM (inactive) | > 100 µM (inactive) | > 100 µM (inactive) | > 100 µM (inactive) | > 100 µM (inactive) | > 100 µM (inactive) | – | > 100 µM (inactive) | – | > 100 µM (inactive)
CN(C)CCNC(=O)C1COc2cc(-c3cc(=O)c4ccccc4o3)ccc2O1 (configuration not stated) | 19.6 µM (inactive) | 22.4 µM (inactive) | 20.1 µM (inactive) | 41.1 µM (inactive) | 15.6 µM (inactive) | 19.5 µM (inactive) | – | 17.3 µM (inactive) | 17.8 µM (inactive) | 23.7 µM (inactive) | 28.4 µM (inactive) | 17.1 µM (inactive) | 15.2 µM (inactive) | 29.6 µM (inactive) | 53.5 µM (inactive) | 33 µM (inactive) | 28.1 µM (inactive) | 18.8 µM (inactive)
COc1ccc2c3c([nH]c2c1[N+](=O)[O-])C(C)N(Cc1ccccc1)CC3 (configuration not stated) | 3.91 µM (inactive) | 5.81 µM (inactive) | 2.67 µM (inactive) | 7.94 µM (inactive) | 4.49 µM (inactive) | 7.69 µM (inactive) | 3.59 µM (inactive) | 1.79 µM (inactive) | 13.9 µM (inactive) | 2.02 µM (inactive) | 2.02 µM (inactive) | 2.47 µM (inactive) | – | 43.3 µM (inactive) | 40.3 µM (inactive) | 2.07 µM (inactive) | 4.49 µM (inactive) | 3.1 µM (inactive)
